The data set in a line: physchem. The settings on record: octan-1-ol/water.

Usually logD stands for the decadic logarithm of the distribution of all forms, ionised or not, between an organic phase and buffer at a given pH. A low value points to a more hydrophilic compound. `COCCC(=O)Nc1ccc(Nc2ncc3cc(-c4ccncc4)ccc3n2)cc1` yielded a logD (pH 7.4, LogD7.4) of 2.78.
Same read-out and setting: with `O=c1[nH]n(Cc2ccncc2)c(=O)c2c(=O)c3ccc(Cl)cc3[nH]c12` the figure was -0.16.
Consider `Cc1cc2c(C(C)C)c(O)c(O)c(C=O)c2c(O)c1-c1c(C)cc2c(C(C)C)c(O)c(O)c(C=O)c2c1O` [GOSSYPOL], for which the logD (pH 7.4) stood at 2.75.
As to `Cn1cc(C#N)cc1-c1c2c(=O)n(CC#N)c(=O)n(CC3CC3)c2nn1Cc1ccnc2ccc(Cl)cc12`, the logD (pH 7.4, LogD7.4) was determined as 3.33.
Under “pH 7.4, LogD7.4”, `CSc1ncccc1C(=O)Nc1nccs1` showed a logD of 1.43.
In the case of `Cc1[nH]c(C(=O)NC2CCN(c3cc(C(=O)O)cc(Cl)n3)CC2)c(Cl)c1Cl`, for the setting “pH 7.4, LogD7.4”, the logD came out at 1.74.
`Cc1cc(Nc2ncc(F)c(N[C@H]3[C@@H](C(N)=O)[C@@H]4C=C[C@H]3C4)n2)ccc1N1CCN(C)CC1` returned a logD (pH 7.4, LogD7.4) of 2.9.
For the setting “pH 7.4, LogD7.4”, `O=S(=O)(NCC(c1ccccc1)N1CCCCCC1)c1ccc(Br)cc1` (stereo unspecified) yielded a logD of 3.21.
Under “pH 7.4, LogD7.4”, `O=S(=O)(Nc1ccc2[nH]c(-c3ccc(Br)o3)nc2c1)c1ccccc1` registered a logD of 4.38.
`O=C(NC1Cc2ccccc2N(CCO)C1=O)c1cc2cc(Cl)sc2[nH]1` (stereo unspecified) registered a logD (pH 7.4, LogD7.4) of 3.05.
On to `Cc1cccc(NC(=O)NCC(c2cccnc2)N2CCOCC2)c1` (stereo unspecified), for which the logD (pH 7.4, LogD7.4) stood at 2.
The molecule `CN1CC(=O)N2[C@H](c3ccc4c(c3)OCO4)c3[nH]c4ccccc4c3C[C@@H]2C1=O` came in with a logD (pH 7.4, LogD7.4) of 2.6.
Same read-out and setting: in the case of `Oc1ccc2nc(-c3ccccc3)sc2c1` it was 3.99; in that of `O=S(=O)(NCC(c1ccccc1)N1CCCCCC1)c1cccnc1` (stereo unspecified), 2.1.
Still for that read-out and setting: with `O=C(CSc1ccccc1)N1CCN(c2ccccc2)CC1` the figure was 3.2; with `COc1ccc(CN2C(=O)CCC2(C)C(=O)NC2CCCCC2)c(OC)c1` (stereo unspecified), 2.38.
The same measure, in the same setting: in the case of `Cc1ccc2c(n1)c(Sc1ccc(Cl)cc1)c(C)n2CC(=O)O` it was 0.35; in that of `CCCC(=O)Nc1ccc2c(c1)C(=O)C(=O)c1ccccc1-2`, 2.81.
For the setting “pH 7.4”, `COc1cc(O)c2c(c1)/C=C/C[C@H](O)[C@H](O)C(=O)/C=C\C[C@H](C)OC2=O` yielded a pH-dependent lipophilicity (logD) of 1.64.
For the molecule `Cc1ncc(-c2ccnc(Nc3ccc(C(=O)N(C)C)cc3)n2)n1C(C)C`, the logD (pH 7.4, LogD7.4) was 2.45.
As to `CN1C(=O)CC(C)(CCc2cccc(-c3ccccc3)c2)N=C1N` (stereo unspecified), the logD (pH 7.4, LogD7.4) stood at 2.03.
Molecule `Cc1ccc2c(c1)c(-c1ccnc3cc(C(F)(F)F)ccc13)c(C)n2CC(=O)O` displayed a logD (pH 7.4, LogD7.4) of 1.78.
The same measure, in the same setting: with `Nc1nc2cc3c(cc2s1)CCN(Cc1cnc[nH]1)CC3` the figure was -0.12.
Consider `COc1ccccc1CN[C@H]1CCCN[C@H]1c1ccccc1` [CP-99994], for which, where the note is “pH 7.4, LogD7.4”, the logD was found to be 1.5.
As for `COc1cc(F)ccc1-c1cncc(C2CCCN2)c1` (stereo unspecified), the logD (pH 7.4) worked out at 1.1.
Where the note is “pH 7.4, LogD7.4”, `CC(C)C[C@H](N)c1nnc(S(=O)(=O)Cc2ccc(F)cc2)o1` yielded a logD of 1.11.
On the same count and under the same terms, with `CCN1CCC[C@H](CN2CCN(C(=O)Nc3ccc(Cl)c(Cl)c3)CC2)C1` the figure was 1.86; with `CC(C)C[C@H](CO)Nc1nc(SCc2ccncc2)nc2nc(N)sc12`, 2.9; with `COc1cc(C(=O)NS(=O)(=O)c2ccccc2)ccc1Cn1ncc2ccc(NC(=O)OC3CCCC3)cc21` [ICI-198615], 1.8.
On the same count and under the same terms, with `COc1cc(C(=O)NS(=O)(=O)c2ccccc2)ccc1Cn1ccc2ccc(C(=O)NCC3CCCC3)cc21` the figure was 1.93.
With `NC(=O)c1cccc(C[C@@H]2C[C@H]3CC[C@@H](C2)N3Cc2ccccc2)c1`, under “pH 7.4”, the logD was 1.11.
`Cc1cc2cc3c(C)cc(=O)oc3c(C)c2o1` [TRIOXSALEN] returned a logD (pH 7.4, LogD7.4) of 3.47.
For `Brc1cnc(NCc2ccccc2)nc1Nc1cc(C2CC2)n[nH]1`, under “pH 7.4, LogD7.4”, the logD is 4.11.
In the case of `CCn1c(=O)c2c(=O)cc(O)oc2c2ccccc21`, the logD (pH 7.4, LogD7.4) is 1.13.
Molecule `O=C(NCCCNc1nc(Nc2cccc(NC(=O)N3CCCC3)c2)ncc1Br)c1cccs1` displayed a log distribution coefficient (logD) (pH 7.4, LogD7.4) of 4.13.
On the same count and under the same terms, with `O=c1cc(-c2ccccc2)oc2cc(O)cc(O)c12` [CHRYSIN] the figure was 3.83.
Molecule `COc1ccc2c(c1)N(C[C@H](C)CN(C)C)c1ccccc1S2` [LEVOMEPROMAZINE] returned a pH-dependent lipophilicity (logD) (pH 7.4, LogD7.4) of 2.99.
Regarding `CC(C)[C@@H](CN1CCCCC1)N(C)C(=O)Cc1ccc(Cl)c(Cl)c1`, the logD (pH 7.4) came to 2.87.
Under “pH 7.4, LogD7.4”, `COc1ccc2c(C)cc(N[C@H]3CCC[C@H](NCc4cccc(OC(F)(F)F)c4)C3)nc2c1` had a logD of 3.61.
Still for that read-out and setting: with `COc1ccc(-c2nc3c(NCC4CCNCC4)c(Br)cnc3[nH]2)cc1` the figure was 1.36; with `CC(O)(C(=O)Nc1ccc(S(=O)(=O)c2cccnc2)cc1)C(F)(F)F` (stereo unspecified), 2.08; with `CC(=O)Nc1ccc2[nH]cc(-c3cc(NC4CC4)n4ncc(C#N)c4n3)c2c1`, 2.65.
The molecule `CC(NC(=O)C1(N)CCN(c2ncnc3[nH]ccc23)CC1)c1ccc(Cl)cc1` (stereo unspecified) showed a logD (pH 7.4, LogD7.4) of 2.7.
The same measure, in the same setting: in the case of `NC(Cc1cc(I)c(Oc2ccc(O)c(I)c2)c(I)c1)C(=O)O` (stereo unspecified) [RATHYRONINE] it was 0.97.
In turn, `NC(=O)c1cnc(N[C@H]2CCCNC2)c2cc(-c3ccc(F)c(F)c3)sc12` returned a logD (pH 7.4, LogD7.4) of 2.17.
On the same count and under the same terms, with `COc1cc2ncnc(Nc3ccc(F)cc3)c2cc1OC` the figure was 3.1; with `CC(C)Cn1c(=O)n(C)c(=O)c2c(C(=O)N3CC[C@@H](O)C3)c(Oc3cccc4ccccc34)sc21`, 2.87; with `C[C@H](CO)Nc1nc(SCc2cccc(F)c2F)nc2[nH]c(=O)c(C#N)cc12`, 3.32.
Where the note is “pH 7.4, LogD7.4”, `COc1cc2c(Nc3ccc(Cl)cc3F)ncnc2cc1OCC1CCNCC1` returned a logD of 1.1.
As to `CN(C)c1ccnc2sc(C(N)=O)c(N)c12`, the logD (pH 7.4, LogD7.4) was 1.7.
Consider `CC(=O)Nc1cccc(S(=O)(=O)Nc2ccc(-c3ccccc3)n(CC(=O)NC(C(=O)C(F)(F)F)C(C)C)c2=O)c1` (stereo unspecified), for which the pH-dependent lipophilicity (logD) (pH 7.4, LogD7.4) came out at 2.43.
Same read-out and setting: in the case of `O=C(O)c1cccnc1Nc1cccc(C(F)(F)F)c1` [NIFLUMIC ACID] it was 1.
Still for that read-out and setting: in the case of `O=c1c2ccc(Cl)cc2[nH]c2c(O)nn(Cc3ccsc3)c(=O)c12` it was 1.11.
The molecule `Cc1cnc(-c2ccc(C)c(NC(=O)c3ccc(OCc4ccccn4)cc3)c2)[nH]1` displayed a logD (pH 7.4, LogD7.4) of 3.19.
On the same count and under the same terms, with `Cc1ccc(-c2c[nH]nn2)cc1` the figure was 2.58; with `O=C(Nc1ccccc1)c1cc(Cl)ccc1O`, 2.9; with `COc1ccc(N(C(=O)c2ccccc2)C(C)C(=O)NC2CCCC2)c(OC)c1` (stereo unspecified), 3.02.
In turn, `CC(=O)c1ccc(S(=O)(=O)NC(=O)NC2CCCCC2)cc1` [ACETOHEXAMIDE] gave a log distribution coefficient (logD) (pH 7.4, LogD7.4) of -0.49.
In the case of `CC(O)C(C)OC(=O)[C@@H]1CC2c3cccc4c3c(cn4C(C)C)CC2N(C)C1` (stereo partly specified), the logD (pH 7.4) stood at 2.8.
For the setting “pH 7.4, LogD7.4”, `O=C1CCOc2nc(OCc3ccccc3)ccc21` yielded a logD of 3.1.
Still for that read-out and setting: with `NC(=O)c1ccc(=O)n(Cc2ccc(F)c(F)c2)c1` the figure was 1.37.
`O=C(O)CCn1c2ccccc2c2ccccc21` came in with a logD (pH 7.4, LogD7.4) of 0.6.
On the same count and under the same terms, in the case of `O=C(c1cccc(Cc2n[nH]c(=O)c3ccccc23)c1)N1CCN(c2ccccn2)CC1` it was 2.36; in that of `O=S1NC(Cc2ccc3ccccc3c2)=NO1` (stereo unspecified), 1.85.
In turn, `CC[C@H](C)[C@@H](CO)NS(=O)(=O)c1ccc(Cl)s1` came in with a logD (pH 7.4, LogD7.4) of 2.7.
Still for that read-out and setting: in the case of `CNS(=O)(=O)CCc1ccc2[nH]cc(C3CCN(C)CC3)c2c1` it was 0.48; in that of `CNc1cccc(CCOc2ccc(C[C@H](NC(=O)c3c(C)cc(C)cc3C)C(=O)O)cc2)n1`, 0.52.
Under “pH 7.4”, `Oc1cccc(O[C@H]2C[C@H]3CC[C@@H](C2)N3Cc2ccccc2)c1` returned a logD of 2.3.
As to `CCN1CCOc2cc(COc3ccccc3)cnc21`, the pH-dependent lipophilicity (logD) (pH 7.4, LogD7.4) is 3.7.
Turning to `Cc1nc2ccc(NC(=O)CCNC(N)=O)cc2s1`, the log distribution coefficient (logD) (pH 7.4, LogD7.4) was found to be 0.9.
Same read-out and setting: in the case of `C[C@@H]1CN(c2noc(C(F)F)n2)CCN1c1ncc(OCc2ccncc2C#N)cn1` it was 2.85; in that of `Oc1ccc(-c2ccc3cc(O)ccc3n2)cc1`, 3.1.
On the same count and under the same terms, in the case of `COc1cc2c(Nc3cccc(Cl)c3Cl)c(C(N)=O)cnc2cc1NCCN(C)C` it was 3.41; in that of `CC(NC(=O)C1(N)CCN(c2ncnc3[nH]ccc23)CC1)c1ccccn1` (stereo unspecified), 1.3.
With `Nc1ccccc1[N+](=O)[O-]` [2-NITROANILINE], the logD (pH 7.4) is -0.96.
`COC(=O)COc1ccc(O)cc1` returned a logD (pH 7.4, LogD7.4) of 0.92.
Still for that read-out and setting: with `Cc1cc(NCc2ccccc2)nc2ccccc12` the figure was 3.69; with `Cc1ccc(COC(=O)N2CC[C@H](CNc3ncccn3)[C@H](F)C2)cc1` [RISLENEMDAZ], 3.21.
Take `CN1CCC[C@H]1c1ccccn1`: for the setting “pH 7.4”, the logD was determined as 0.44.
For the molecule `Cc1ccc(Oc2cccc(CN3CCCC(n4cc(C)c(=O)[nH]c4=O)C3)c2)cc1` (stereo unspecified), the log distribution coefficient (logD) (pH 7.4, LogD7.4) was found to be 3.38.
`Nc1ncccc1NCc1cccc(-c2cccnc2)c1` yielded a logD (pH 7.4, LogD7.4) of 3.
Molecule `NC(=O)c1cc2ccccc2nc1N` came in with a pH-dependent lipophilicity (logD) (pH 7.4, LogD7.4) of 1.07.
The same measure, in the same setting: in the case of `CC(c1cc2ccccc2o1)n1[nH]c(=O)c2[nH]c3cc(Cl)ccc3c(=O)c2c1=O` (stereo unspecified) it was 2.1.
As to `CCCCCOC(=O)Nc1nc(=O)n([C@@H]2O[C@H](C)[C@@H](O)[C@H]2O)cc1F` [CAPECITABINE], the log distribution coefficient (logD) (pH 7.4, LogD7.4) was 0.67.
For `Cc1occc(=O)c1OCc1ccc(F)cc1`, where the note is “pH 7.4, LogD7.4”, the logD turned out to be 1.91.
On the same count and under the same terms, with `CC(C)NC[C@@H](C(=O)N1CCN(c2ncnc3c2[C@H](C)C[C@H]3O)CC1)c1ccc(Cl)cc1` [IPATASERTIB] the figure was 1.3.
Turning to `O=C(c1ccc(C(=C2CCN(Cc3cscn3)CC2)c2cccc3cccnc23)cc1)N1CCC(O)CC1`, the logD (pH 7.4) amounted to 1.89.
Where the note is “pH 7.4, LogD7.4”, `Cc1c(Sc2ccc(Cl)cc2)c2cc(Cl)ccc2n1Cc1nnn[nH]1` had a logD of 3.25.
Take `Cc1cc(C)c2c(n1)sc1c(N3CCN(C)CC3)ncnc12`: for the setting “pH 7.4, LogD7.4”, the logD stood at 3.2.
In the case of `CC(N)(COP(=O)(O)O)C(=O)O` (stereo unspecified), the logD (pH 7.4, LogD7.4) worked out at 2.5.
As to `C1CCc2c(c3c(N4CCCC4)nc(N4CCCC4)nc3n2CCN2CCOCC2)C1`, the pH-dependent lipophilicity (logD) (pH 7.4, LogD7.4) came to 3.6.
Still for that read-out and setting: in the case of `Nc1nc(N)c2nc(CO)cnc2n1` it was -0.45; in that of `NCCCC(=O)OCCN1CCN(CCCN2c3ccccc3Sc3ccc(Cl)cc32)CC1` [PERPHENAZINE 4-AMINOBUTYRATE], 1.5.
The same measure, in the same setting: in the case of `Fc1ccc(-c2ncn(C3CCNCC3)c2-c2ccncc2)cc1` [VK-19911] it was 0.3.
Same read-out and setting: in the case of `COc1ccc(-c2cc(C(F)(F)F)ccc2OCC(=O)O)cc1` it was 0.29; in that of `CCCSc1ncccc1C(=O)N(C)C1CCOCC1`, 1.63.

The values above are taken from ChEMBL document CHEMBL3301361, “Experimental in vitro DMPK and physicochemical data on a set of publicly disclosed compounds”.
